Data taken from ChEMBL document CHEMBL1146903, “Modification of the clozapine structure by parallel synthesis” (Bioorg Med Chem Lett, 2006).
pKi: −log10 of the molar value.

Legend:
[1] = biological target: D(1A) dopamine receptor (Homo sapiens, UniProt P21728); assay: Displacement of [3H]SCH 23390 from dopamine D1 receptor expressed in CHO cells; type: cell-based
[2] = biological target: D(2) dopamine receptor (Homo sapiens, UniProt P14416); assay: Displacement of [3H]methylspiperone from dopamine D2 receptor expressed in CHO cells; type: cell-based
D(2) dopamine receptor, sequence (P14416 whole entry): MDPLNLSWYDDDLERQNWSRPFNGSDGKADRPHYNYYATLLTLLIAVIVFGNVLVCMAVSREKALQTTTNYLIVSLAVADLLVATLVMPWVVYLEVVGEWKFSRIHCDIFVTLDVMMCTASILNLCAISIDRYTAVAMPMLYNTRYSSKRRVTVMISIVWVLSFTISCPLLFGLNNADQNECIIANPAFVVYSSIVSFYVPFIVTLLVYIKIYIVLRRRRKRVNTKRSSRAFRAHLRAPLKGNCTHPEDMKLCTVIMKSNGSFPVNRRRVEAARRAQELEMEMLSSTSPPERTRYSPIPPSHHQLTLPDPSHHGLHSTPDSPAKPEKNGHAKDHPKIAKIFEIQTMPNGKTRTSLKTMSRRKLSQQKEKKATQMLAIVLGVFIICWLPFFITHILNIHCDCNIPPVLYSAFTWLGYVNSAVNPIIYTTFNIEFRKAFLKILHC

D(1A) dopamine receptor, sequence (P21728 whole entry): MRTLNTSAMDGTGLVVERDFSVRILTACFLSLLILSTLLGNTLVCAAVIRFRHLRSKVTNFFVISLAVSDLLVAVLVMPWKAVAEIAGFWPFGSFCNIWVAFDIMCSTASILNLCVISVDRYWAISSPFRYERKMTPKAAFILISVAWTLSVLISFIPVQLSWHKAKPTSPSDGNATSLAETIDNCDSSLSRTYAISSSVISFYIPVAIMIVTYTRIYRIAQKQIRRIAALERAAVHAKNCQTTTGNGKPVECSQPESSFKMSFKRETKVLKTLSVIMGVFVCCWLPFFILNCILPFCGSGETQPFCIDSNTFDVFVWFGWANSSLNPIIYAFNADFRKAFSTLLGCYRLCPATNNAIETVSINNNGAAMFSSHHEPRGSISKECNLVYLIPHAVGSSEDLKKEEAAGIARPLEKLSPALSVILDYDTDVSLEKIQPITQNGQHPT

`CN1CCN(C2=Nc3cc(Cl)ccc3N(NC(=O)c3cc(F)c(F)c(F)c3F)c3ccc(Cl)cc32)CC1` showed a pKi [1] of 7.01 and a pKi [2] of 6.57.
With `Clc1ccc2c(c1)N=C(N1CCN(Cc3cccc4c3OCO4)CC1)c1ccccc1N2` the pKi [1] was 6.20 and the pKi [2] was 7.10.
Compound `CN1CCN(C2=Nc3cc(Cl)ccc3N(NC(=O)c3cccnc3)c3ccccc32)CC1` has a pKi [1] of 7.07 and a pKi [2] of 4.90.
For `O=C(NN1c2ccc(Cl)cc2N=C(N2CCN(Cc3ccc4c(c3)OCCO4)CC2)c2ccccc21)c1ccccc1Cl`, the pKi [1] was 6.62 and the pKi [2] was under 5.70.
Compound `CC(C)N1CCN(C2=Nc3cc(Cl)ccc3N(NC(=O)c3ccccc3Cl)c3ccccc32)CC1` has a pKi [1] of 6.72 and a pKi [2] of 6.00.
`CN1CCN(C2=Nc3cc(Cl)ccc3N(NC(=O)c3cccc(C#N)c3)c3ccccc32)CC1` was tested, and the pKi [1] was 7.21 and the pKi [2] was 5.44.
With `CN1CCN(C2=Nc3cc(Cl)ccc3N(NC(=O)c3cc(F)c(F)c(F)c3F)c3ccccc32)CC1` the pKi [1] was 7.49 and the pKi [2] was 5.89.
In the case of `COc1cccc(OC)c1C(=O)NN1c2ccccc2N=C(N2CCN(C)CC2)c2cc(Cl)ccc21`, the pKi [1] was 8.22 and the pKi [2] was 6.71.
`O=C(NN1c2ccc(Cl)cc2N=C(N2CCN(Cc3ccccc3F)CC2)c2ccccc21)c1ccccc1Cl` showed a pKi [1] of 6.30 and a pKi [2] of under 5.70.
With `COc1ccc(C(=O)NN2c3ccc(Cl)cc3N=C(N3CCN(C)CC3)c3ccccc32)cc1` the pKi [2] was under 5.52.
`CN1CCN(C2=Nc3ccccc3N(NC(=O)c3ccccc3I)c3ccc(Cl)cc32)CC1` showed a pKi [1] of 8.15 and a pKi [2] of 6.64.
For `COc1cc(C(=O)NN2c3ccc(Cl)cc3N=C(N3CCN(C)CC3)c3ccccc32)cc(OC)c1OC`, the pKi [1] was 7.51 and the pKi [2] was 5.25.
With `COc1cc(C(=O)NN2c3ccc(Cl)cc3N=C(N3CCN(C)CC3)c3cc(Cl)ccc32)cc(OC)c1OC` the pKi [1] was 7.80 and the pKi [2] was 6.57.
`CC(C)(C)CN1CCN(C2=Nc3cc(Cl)ccc3N(NC(=O)c3ccccc3Cl)c3ccccc32)CC1` showed a pKi [1] of 6.35 and a pKi [2] of under 5.52.
Work on `CCN1CCN(C2=Nc3cc(Cl)ccc3N(NC(=O)c3ccccc3Cl)c3ccccc32)CC1` yielded a pKi [1] of 7.27 and a pKi [2] of 6.15.
Work on `COc1ccccc1C(=O)NN1c2ccc(Cl)cc2N=C(N2CCN(C)CC2)c2ccccc21` yielded a pKi [1] of 7.89 and a pKi [2] of 5.95.
`CN1CCN(C2=Nc3cc(Cl)ccc3N(NC(=O)c3ccncc3)c3ccccc32)CC1` was tested, and the pKi [1] was 7.07 and the pKi [2] was 4.55.
`CN1CCN(C2=Nc3cc(Cl)ccc3N(NC(=O)c3ccccc3I)c3ccc(Cl)cc32)CC1` gave a pKi [1] of 7.92 and a pKi [2] of 7.44.
With `CC(C)CN1CCN(C2=Nc3cc(Cl)ccc3N(NC(=O)c3ccccc3Cl)c3ccccc32)CC1` the pKi [1] was 7.09 and the pKi [2] was under 5.52.
`COc1cccc(C(=O)NN2c3ccc(Cl)cc3N=C(N3CCN(C)CC3)c3cc(Cl)ccc32)c1` was tested, and the pKi [1] was 7.36 and the pKi [2] was 6.86.
`CN1CCN(C2=Nc3ccccc3N(NC(=O)c3ccc4c(c3)OCO4)c3ccc(Cl)cc32)CC1` showed a pKi [1] of 7.08 and a pKi [2] of 5.90.
With `Cc1ccccc1C(=O)N1c2ccc(Cl)cc2N=C(N2CCN(C)CC2)c2ccccc21` the pKi [1] was 5.91 and the pKi [2] was 5.31.
`Cc1ccccc1C(=O)NN1c2ccc(Cl)cc2N=C(N2CCN(C)CC2)c2cc(Cl)ccc21` gave a pKi [1] of 8.70 and a pKi [2] of 6.76.
`CN1CCN(C2=Nc3ccccc3N(NC(=O)c3cccc(C#N)c3)c3ccc(Cl)cc32)CC1` showed a pKi [1] of 7.00 and a pKi [2] of 5.93.
With `Cc1ccc(S(=O)(=O)N2c3ccc(Cl)cc3N=C(N3CCN(C)CC3)c3ccccc32)cc1` the pKi [1] was 7.19 and the pKi [2] was 6.47.
Work on `CN1CCN(C2=Nc3cc(Cl)ccc3N(NC(=O)c3ccc(C#N)cc3)c3ccc(Cl)cc32)CC1` yielded a pKi [1] of 7.29 and a pKi [2] of 6.71.
Compound `O=C(NN1c2ccc(Cl)cc2N=C(N2CCN(Cc3ccc(F)cc3F)CC2)c2ccccc21)c1ccccc1Cl` has a pKi [1] of 6.05 and a pKi [2] of under 5.52.
Work on `CN1CCN(C2=Nc3cc(Cl)ccc3N(NC(=O)c3ccccc3Cl)c3ccccc32)CC1` yielded a pKi [1] of 8.39.
With `Cc1ccc(CN2CCN(C3=Nc4cc(Cl)ccc4Nc4ccccc43)CC2)c(C)c1` the pKi [1] was 6.32 and the pKi [2] was 7.19.
With `Clc1ccc2c(c1)N=C(N1CCN(Cc3ccc4c(c3)OCCO4)CC1)c1ccccc1N2` the pKi [1] was 6.23 and the pKi [2] was 7.54.
For `CN1CCN(C2=Nc3cc(Cl)ccc3N(NC(=O)c3cccc(C#N)c3)c3ccc(Cl)cc32)CC1`, the pKi [1] was 7.33 and the pKi [2] was 6.76.
Compound `CN1CCN(C2=Nc3cc(Cl)ccc3N(NC(=O)c3ccc4c(c3)OCO4)c3ccc(Cl)cc32)CC1` has a pKi [1] of 6.89 and a pKi [2] of 6.54.
With `CN1CCN(C2=Nc3cc(Cl)ccc3N(NC(=O)c3ccc(C#N)cc3)c3ccccc32)CC1` the pKi [1] was 7.17 and the pKi [2] was under 5.70.
Work on `FC(F)(F)Oc1cccc(CN2CCN(C3=Nc4cc(Cl)ccc4Nc4ccccc43)CC2)c1` yielded a pKi [1] of 5.42 and a pKi [2] of 8.47.
For `CN1CCN(C2=Nc3cc(Cl)ccc3N(NC(=O)c3ccc4c(c3)OCO4)c3ccccc32)CC1`, the pKi [1] was 7.25 and the pKi [2] was 6.08.
In the case of `FC1(F)Oc2cccc(CN3CCN(C4=Nc5cc(Cl)ccc5Nc5ccccc54)CC3)c2O1`, the pKi [1] was 5.51 and the pKi [2] was 8.10.
`COc1ccccc1CNN1c2ccc(Cl)cc2N=C(N2CCN(C)CC2)c2ccccc21` was tested, and the pKi [1] was 7.22 and the pKi [2] was 6.69.
`O=C(NN1c2ccc(Cl)cc2N=C(N2CCN(Cc3cccc(OC(F)(F)F)c3)CC2)c2ccccc21)c1ccccc1Cl` showed a pKi [1] of 5.59 and a pKi [2] of under 5.52.
In the case of `CN1CCN(C2=Nc3cc(Cl)ccc3N(NC(=O)c3cccc(F)c3F)c3ccccc32)CC1`, the pKi [1] was 7.80.
Compound `CN1CCN(C2=Nc3ccccc3N(NC(=O)c3cc(F)c(F)c(F)c3F)c3ccc(Cl)cc32)CC1` has a pKi [1] of 6.81 and a pKi [2] of 6.12.
In the case of `CN1CCN(C2=Nc3cc(Cl)ccc3N(NC(=O)c3ccc(F)cc3C(F)(F)F)c3ccccc32)CC1`, the pKi [1] was 7.31 and the pKi [2] was 5.79.
With `O=C(NN1c2ccc(Cl)cc2N=C(N2CCN(CC3CCCCC3)CC2)c2ccccc21)c1ccccc1Cl` the pKi [1] was 6.53 and the pKi [2] was under 5.52.
Compound `O=C(NN1c2ccc(Cl)cc2N=C(N2CCN(Cc3cccc4c3OC(F)(F)O4)CC2)c2ccccc21)c1ccccc1Cl` has a pKi [1] of 5.32 and a pKi [2] of under 5.52.
For `CN1CCN(C2=Nc3cc(Cl)ccc3N(NC(=O)c3ccccc3Br)c3ccccc32)CC1`, the pKi [1] was 7.80 and the pKi [2] was 6.10.
In the case of `CN1CCN(C2=Nc3ccccc3N(NC(=O)c3cc(F)ccc3C(F)(F)F)c3ccc(Cl)cc32)CC1`, the pKi [1] was 7.66 and the pKi [2] was 6.38.
With `COc1cccc(C(=O)NN2c3ccccc3N=C(N3CCN(C)CC3)c3cc(Cl)ccc32)c1` the pKi [1] was 7.07 and the pKi [2] was 5.86.
Compound `CCCN1CCN(C2=Nc3cc(Cl)ccc3N(NC(=O)c3ccccc3Cl)c3ccccc32)CC1` has a pKi [1] of 7.59 and a pKi [2] of 6.39.
With `Cc1ccc(CN2CCN(C3=Nc4cc(Cl)ccc4N(NC(=O)c4ccccc4Cl)c4ccccc43)CC2)c(C)c1` the pKi [1] was 5.96 and the pKi [2] was under 5.52.
`CN1CCN(C2=Nc3cc(Cl)ccc3N(NC(=O)c3cccc(C(F)(F)F)c3)c3ccccc32)CC1` gave a pKi [1] of 6.83 and a pKi [2] of 5.87.
`CCC(CC)CN1CCN(C2=Nc3cc(Cl)ccc3N(NC(=O)c3ccccc3Cl)c3ccccc32)CC1` gave a pKi [1] of 6.30 and a pKi [2] of under 5.52.
For `Cc1ccccc1S(=O)(=O)N1c2ccc(Cl)cc2N=C(N2CCN(C)CC2)c2ccccc21`, the pKi [1] was 7.15 and the pKi [2] was 7.20.
In the case of `CN1CCN(C2=Nc3cc(Cl)ccc3N(C(=O)Nc3cc(Cl)cc(Cl)c3)c3ccccc32)CC1`, the pKi [1] was 6.76 and the pKi [2] was 5.41.
`CN1CCN(C2=Nc3ccccc3N(NC(=O)c3ccc(C#N)cc3)c3ccc(Cl)cc32)CC1` was tested, and the pKi [1] was 7.19 and the pKi [2] was 5.71.
`COc1cccc(OC)c1C(=O)NN1c2ccc(Cl)cc2N=C(N2CCN(C)CC2)c2cc(Cl)ccc21` was tested, and the pKi [1] was 7.96 and the pKi [2] was 7.01.
Compound `CN1CCN(C2=Nc3cc(Cl)ccc3N(NC(=O)c3cc(F)ccc3C(F)(F)F)c3ccc(Cl)cc32)CC1` has a pKi [1] of 7.62 and a pKi [2] of 7.16.
`O=C(NN1c2ccc(Cl)cc2N=C(N2CCN(Cc3cccc4c3OCO4)CC2)c2ccccc21)c1ccccc1Cl` was tested, and the pKi [1] was 6.24 and the pKi [2] was under 5.70.
`Fc1ccc(CN2CCN(C3=Nc4cc(Cl)ccc4Nc4ccccc43)CC2)c(F)c1` was tested, and the pKi [1] was 6.08 and the pKi [2] was 6.75.
`COc1cc(C(=O)NN2c3ccccc3N=C(N3CCN(C)CC3)c3cc(Cl)ccc32)cc(OC)c1OC` was tested, and the pKi [1] was 7.70 and the pKi [2] was 5.49.
`Cc1ccccc1C(=O)NN1c2ccccc2N=C(N2CCN(C)CC2)c2cc(Cl)ccc21` showed a pKi [1] of 7.32 and a pKi [2] of 5.80.
